{"source": "patent US12479847B2", "about": "(DANA-FARBER CANCER INSTITUTE, INC., priority 2019, dated 2025)", "test_in_all_cases": "KINOMEscan (ScanMAX) kinase profiling", "format_in_all_cases": "binding", "key": {"panel of 468 kinases [1]": {"target": "T1, panel of 468 kinases (Homo sapiens, UniProt Q86Y07)", "T1 construct": "purchased KINOMEscan (ScanMAX) service", "settings": "VRK2; 1 μM; read-out: % control"}, "panel of 468 kinases [2]": {"target": "T2, panel of 468 kinases (Homo sapiens, UniProt Q9UPZ9)", "T2 construct": "purchased KINOMEscan (ScanMAX) service", "T2 sequence (Q9UPZ9 1-632)": "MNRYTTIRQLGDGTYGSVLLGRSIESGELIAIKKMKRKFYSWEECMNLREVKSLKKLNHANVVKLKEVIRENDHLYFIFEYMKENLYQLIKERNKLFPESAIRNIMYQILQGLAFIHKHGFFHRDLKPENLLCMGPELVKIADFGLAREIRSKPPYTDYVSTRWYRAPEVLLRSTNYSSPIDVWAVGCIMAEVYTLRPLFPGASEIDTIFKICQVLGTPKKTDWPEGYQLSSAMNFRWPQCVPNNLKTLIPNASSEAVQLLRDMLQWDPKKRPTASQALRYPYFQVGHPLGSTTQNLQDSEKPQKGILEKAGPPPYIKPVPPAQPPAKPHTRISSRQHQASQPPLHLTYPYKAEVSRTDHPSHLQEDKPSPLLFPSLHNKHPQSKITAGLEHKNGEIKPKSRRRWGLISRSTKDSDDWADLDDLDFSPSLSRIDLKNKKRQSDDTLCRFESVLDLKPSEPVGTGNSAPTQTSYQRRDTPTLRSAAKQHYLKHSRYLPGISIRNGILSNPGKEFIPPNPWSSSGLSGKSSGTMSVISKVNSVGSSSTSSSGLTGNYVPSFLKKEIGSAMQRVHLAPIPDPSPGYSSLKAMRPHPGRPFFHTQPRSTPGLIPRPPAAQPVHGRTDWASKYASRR", "settings": "ICK; 1 μM; read-out: % control"}, "panel of 468 kinases [3]": {"target": "T3, panel of 468 kinases (Homo sapiens, UniProt Q96D53)", "T3 construct": "purchased KINOMEscan (ScanMAX) service", "T3 sequence (Q96D53 1-544)": "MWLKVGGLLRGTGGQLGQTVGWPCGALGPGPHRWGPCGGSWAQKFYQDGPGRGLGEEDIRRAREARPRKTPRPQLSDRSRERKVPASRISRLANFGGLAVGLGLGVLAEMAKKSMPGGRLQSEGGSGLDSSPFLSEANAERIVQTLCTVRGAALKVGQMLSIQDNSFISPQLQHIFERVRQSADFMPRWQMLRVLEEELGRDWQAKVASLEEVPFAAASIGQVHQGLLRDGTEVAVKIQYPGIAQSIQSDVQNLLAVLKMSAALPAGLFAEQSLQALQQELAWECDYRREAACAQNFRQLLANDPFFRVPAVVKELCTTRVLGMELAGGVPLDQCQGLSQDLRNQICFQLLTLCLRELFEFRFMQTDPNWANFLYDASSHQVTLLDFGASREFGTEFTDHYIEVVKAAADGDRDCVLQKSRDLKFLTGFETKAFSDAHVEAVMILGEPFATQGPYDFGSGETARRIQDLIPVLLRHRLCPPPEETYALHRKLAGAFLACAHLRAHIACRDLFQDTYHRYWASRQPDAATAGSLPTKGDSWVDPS", "settings": "ADCK4; 1 μM; read-out: % control"}, "panel of 468 kinases [4]": {"target": "T4, panel of 468 kinases (Homo sapiens, UniProt O94806)", "T4 construct": "purchased KINOMEscan (ScanMAX) service", "T4 sequence (O94806 1-890)": "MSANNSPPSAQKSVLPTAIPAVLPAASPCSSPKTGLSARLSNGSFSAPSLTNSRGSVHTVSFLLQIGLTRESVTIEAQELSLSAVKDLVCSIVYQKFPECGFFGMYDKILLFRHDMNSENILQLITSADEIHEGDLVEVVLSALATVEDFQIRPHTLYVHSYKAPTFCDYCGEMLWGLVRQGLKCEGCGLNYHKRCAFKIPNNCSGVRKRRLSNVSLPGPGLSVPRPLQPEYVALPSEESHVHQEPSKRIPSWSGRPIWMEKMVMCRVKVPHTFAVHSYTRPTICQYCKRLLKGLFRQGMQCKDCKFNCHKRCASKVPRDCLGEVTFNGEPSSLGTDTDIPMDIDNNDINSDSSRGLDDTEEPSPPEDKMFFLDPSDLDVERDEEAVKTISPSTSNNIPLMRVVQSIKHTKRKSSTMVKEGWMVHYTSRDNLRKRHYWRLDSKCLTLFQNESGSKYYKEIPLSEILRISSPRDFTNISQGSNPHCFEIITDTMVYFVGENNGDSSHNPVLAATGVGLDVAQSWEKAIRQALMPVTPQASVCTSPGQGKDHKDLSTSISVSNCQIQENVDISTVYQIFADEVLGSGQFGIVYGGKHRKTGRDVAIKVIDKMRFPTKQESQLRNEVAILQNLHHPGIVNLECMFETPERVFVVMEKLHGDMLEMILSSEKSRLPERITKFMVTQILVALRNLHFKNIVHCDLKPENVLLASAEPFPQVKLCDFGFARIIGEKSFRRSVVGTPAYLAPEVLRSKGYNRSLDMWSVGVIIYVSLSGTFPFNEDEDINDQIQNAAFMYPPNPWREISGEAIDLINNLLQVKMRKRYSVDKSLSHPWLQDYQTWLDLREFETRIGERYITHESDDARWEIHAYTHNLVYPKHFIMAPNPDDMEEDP", "settings": "PRKD3; 1 μM; read-out: % control"}, "panel of 468 kinases [5]": {"target": "T5, panel of 468 kinases (Homo sapiens, UniProt Q9HC98)", "T5 construct": "purchased KINOMEscan (ScanMAX) service", "settings": "NEK6; 1 μM; read-out: % control"}, "panel of 468 kinases [6]": {"target": "T6, panel of 468 kinases (Homo sapiens, UniProt Q9UBF8)", "T6 construct": "purchased KINOMEscan (ScanMAX) service", "settings": "PIK4CB; 1 μM; read-out: % control"}, "panel of 468 kinases [7]": {"target": "T7, panel of 468 kinases (Homo sapiens, UniProt P42336, C420R)", "T7 construct": "purchased KINOMEscan (ScanMAX) service", "T7 sequence (P42336 whole entry C420R)": "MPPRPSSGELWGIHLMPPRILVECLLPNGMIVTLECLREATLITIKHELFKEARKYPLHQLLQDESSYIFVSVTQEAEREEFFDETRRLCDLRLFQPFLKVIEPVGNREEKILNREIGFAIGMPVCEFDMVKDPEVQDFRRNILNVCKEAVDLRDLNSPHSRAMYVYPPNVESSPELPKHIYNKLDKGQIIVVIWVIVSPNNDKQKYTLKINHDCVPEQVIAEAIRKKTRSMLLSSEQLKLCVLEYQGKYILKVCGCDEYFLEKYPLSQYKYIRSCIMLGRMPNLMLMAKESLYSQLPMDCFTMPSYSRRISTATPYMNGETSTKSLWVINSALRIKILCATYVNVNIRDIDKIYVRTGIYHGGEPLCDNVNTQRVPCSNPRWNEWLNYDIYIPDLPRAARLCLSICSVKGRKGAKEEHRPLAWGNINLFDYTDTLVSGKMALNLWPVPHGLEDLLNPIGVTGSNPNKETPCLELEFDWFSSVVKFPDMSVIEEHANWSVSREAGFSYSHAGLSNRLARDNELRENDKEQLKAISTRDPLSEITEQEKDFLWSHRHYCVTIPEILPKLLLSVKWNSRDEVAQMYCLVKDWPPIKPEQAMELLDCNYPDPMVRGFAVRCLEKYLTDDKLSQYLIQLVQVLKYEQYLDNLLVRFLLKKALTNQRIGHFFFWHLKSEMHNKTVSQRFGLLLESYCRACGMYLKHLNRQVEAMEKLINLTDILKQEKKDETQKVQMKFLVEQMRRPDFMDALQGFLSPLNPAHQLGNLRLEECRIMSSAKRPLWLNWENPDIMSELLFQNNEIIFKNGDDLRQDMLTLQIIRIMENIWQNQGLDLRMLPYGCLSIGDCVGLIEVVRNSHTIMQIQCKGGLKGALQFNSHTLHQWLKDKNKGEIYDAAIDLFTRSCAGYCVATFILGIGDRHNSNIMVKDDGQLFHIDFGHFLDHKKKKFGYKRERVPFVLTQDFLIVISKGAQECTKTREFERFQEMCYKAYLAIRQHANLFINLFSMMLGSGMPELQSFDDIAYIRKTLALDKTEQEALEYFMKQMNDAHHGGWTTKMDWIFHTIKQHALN", "settings": "PIK3CA(C420R); 1 μM; read-out: % control"}}, "data": [{"compound": "CNc1nc(Nc2ccc(C(=O)N3CCC(N4CCOCC4)CC3)c3c2OCO3)nc2[nH]cc(Cl)c12", "note": "[Compound 75, (7-((5-chloro-4-(methylamino)-7H-pyrrolo[2,3-d]pyrimidin-2-yl)amino)benzo[d][1,3]dioxol-4-yl)(4-morpholinopiperidin-1-yl)methanone]", "values": [{"measurement": "remaining binding at 1 µM", "setting": "panel of 468 kinases [1]", "value": 88, "unit": "%"}, {"measurement": "remaining binding at 1 µM", "setting": "panel of 468 kinases [2]", "value": 89, "unit": "%"}, {"measurement": "remaining binding at 1 µM", "setting": "panel of 468 kinases [3]", "value": 100, "unit": "%"}, {"measurement": "remaining binding at 1 µM", "setting": "panel of 468 kinases [4]", "value": 4, "unit": "%"}, {"measurement": "remaining binding at 1 µM", "setting": "panel of 468 kinases [5]", "value": 100, "unit": "%"}, {"measurement": "remaining binding at 1 µM", "setting": "panel of 468 kinases [6]", "value": 100, "unit": "%"}, {"measurement": "remaining binding at 1 µM", "setting": "panel of 468 kinases [7]", "value": 100, "unit": "%"}]}, {"compound": "CNc1nc(Nc2ccc(S(=O)(=O)N3CCC(N4CCOCC4)CC3)cc2OC)nc2[nH]cc(Cl)c12", "note": "[Compound 12, 5-chloro-N2-(2-methoxy-4-((4-morpholinopiperidin-1-yl)sulfonyl)phenyl)-N4-methyl-7H-pyrrolo[2,3-d]pyrimidine-2,4-diamine]", "values": [{"measurement": "remaining binding at 1 µM", "setting": "panel of 468 kinases [1]", "value": 94, "unit": "%"}, {"measurement": "remaining binding at 1 µM", "setting": "panel of 468 kinases [2]", "value": 77, "unit": "%"}, {"measurement": "remaining binding at 1 µM", "setting": "panel of 468 kinases [3]", "value": 100, "unit": "%"}, {"measurement": "remaining binding at 1 µM", "setting": "panel of 468 kinases [4]", "value": 28, "unit": "%"}, {"measurement": "remaining binding at 1 µM", "setting": "panel of 468 kinases [5]", "value": 100, "unit": "%"}, {"measurement": "remaining binding at 1 µM", "setting": "panel of 468 kinases [6]", "value": 100, "unit": "%"}, {"measurement": "remaining binding at 1 µM", "setting": "panel of 468 kinases [7]", "value": 100, "unit": "%"}]}, {"compound": "CNc1nc(Nc2ccc(P3(=O)CCN(C4CCOCC4)CC3)cc2OC)nc2[nH]cc(Cl)c12", "note": "[Compound 77, 4-(4-((5-chloro-4-(methylamino)-7H-pyrrolo[2,3-d]pyrimidin-2-yl)amino)-3-methoxyphenyl)-1-(tetrahydro-2H-pyran-4-yl)-1,4-azaphosphinane 4-oxide]", "values": [{"measurement": "remaining binding at 1 µM", "setting": "panel of 468 kinases [1]", "value": 89, "unit": "%"}, {"measurement": "remaining binding at 1 µM", "setting": "panel of 468 kinases [2]", "value": 85, "unit": "%"}, {"measurement": "remaining binding at 1 µM", "setting": "panel of 468 kinases [3]", "value": 81, "unit": "%"}, {"measurement": "remaining binding at 1 µM", "setting": "panel of 468 kinases [4]", "value": 13, "unit": "%"}, {"measurement": "remaining binding at 1 µM", "setting": "panel of 468 kinases [5]", "value": 100, "unit": "%"}, {"measurement": "remaining binding at 1 µM", "setting": "panel of 468 kinases [6]", "value": 100, "unit": "%"}, {"measurement": "remaining binding at 1 µM", "setting": "panel of 468 kinases [7]", "value": 100, "unit": "%"}]}]}
